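Tested at 5 concentrations; 48 h exposure; 96-well plates; endpoints linearly interpolated, else capped at highest concentration. GI50 is the concentration that inhibits growth by half.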 Active and inactive are the calls of the source. Cut-off read from the data, not from the text of the source: active = GI50 up to about 1.1 µM and inactive = higher.
Columns and labels:
Test in all cases: NCI-60 cell line screen, 48 h
A549 = test system: A549
ACHN = test system: ACHN
CCRF-CEM = test system: CCRF-CEM
HCC 2998 = test system: HCC 2998
HCT-116 = test system: HCT-116
HCT-15 = test system: HCT-15
HL-60 = test system: HL-60
K562 = test system: K562
NCI-H226 = test system: NCI-H226
NCI/ADR-RES = test system: NCI/ADR-RES
OVCAR-3 = test system: OVCAR-3
RXF 393 = test system: RXF 393
SF-295 = test system: SF-295
SK-MEL-5 = test system: SK-MEL-5
SN12C = test system: SN12C
SNB-75 = test system: SNB-75
SW-620 = test system: SW-620
T47D = test system: T47D
UACC-257 = test system: UACC-257
UACC-62 = test system: UACC-62

Row | SMILES | GI50 (A549) | GI50 (ACHN) | GI50 (CCRF-CEM) | GI50 (HCC 2998) | GI50 (HCT-116) | GI50 (HCT-15) [µM] | GI50 (HL-60) | GI50 (K562) | GI50 (NCI-H226) | GI50 (NCI/ADR-RES) | GI50 (OVCAR-3) | GI50 (RXF 393) | GI50 (SF-295) | GI50 (SK-MEL-5) | GI50 (SN12C) | GI50 (SNB-75) | GI50 (SW-620) | GI50 (T47D) | GI50 (UACC-257) | GI50 (UACC-62)
1 | CS[C@]12C(=O)C[C@@]3(C)[C@@H](CC[C@]3(O)C(=O)CO)[C@@H]1CCC1=CC(=O)CC[C@@]12C | > 100 µM (inactive) | > 100 µM (inactive) | 42.8 µM (inactive) | 26.9 µM (inactive) | > 100 µM (inactive) | 60.7 | 35.3 µM (inactive) | 37.1 µM (inactive) | > 100 µM (inactive) | > 100 µM (inactive) | > 100 µM (inactive) | > 100 µM (inactive) | > 100 µM (inactive) | > 100 µM (inactive) | > 100 µM (inactive) | > 100 µM (inactive) | 68.5 µM (inactive) | > 100 µM (inactive) | > 100 µM (inactive) | > 100 µM (inactive)
2 | COC(=O)C1Cc2ccc(O)c(O)c2CN1 (stereo not given) | > 100 µM (inactive) | > 100 µM (inactive) | 35 µM (inactive) | > 100 µM (inactive) | 23.7 µM (inactive) | 29.7 | 25.8 µM (inactive) | 28.8 µM (inactive) | > 100 µM (inactive) | 22.1 µM (inactive) | 35.5 µM (inactive) | > 100 µM (inactive) | 7.41 µM (inactive) | 15.1 µM (inactive) | 16.4 µM (inactive) | 19.5 µM (inactive) | 21.3 µM (inactive) | 71.9 µM (inactive) | 15.5 µM (inactive) | 19.7 µM (inactive)
3 | CN(C)c1n/c(=N/Cc2ccccc2)ss1 | > 10 µM (inactive) | > 10 µM (inactive) | 0.646 µM (active) | > 9.64 µM (inactive) | > 10 µM (inactive) | > 10 | > 5.2 µM (inactive) | 3.21 µM (inactive) | > 10 µM (inactive) | > 10 µM (inactive) | > 10 µM (inactive) | > 10 µM (inactive) | > 10 µM (inactive) | > 10 µM (inactive) | > 10 µM (inactive) | > 10 µM (inactive) | > 10 µM (inactive) | > 10 µM (inactive) | > 10 µM (inactive) | > 10 µM (inactive)
4 | N=c1c2c(=S)n(-c3ccccc3)c(=S)n(-c3ccccc3)c2nc(SCCN2CCCC2)n1-c1ccccc1 | 2.39 µM (inactive) | 1.77 µM (inactive) | 0.347 µM (active) | 1.31 µM (inactive) | 2.09 µM (inactive) | 1.6 | 0.183 µM (active) | 0.762 µM (active) | 7.59 µM (inactive) | 6.44 µM (inactive) | 1.68 µM (inactive) | 1.41 µM (inactive) | 15.2 µM (inactive) | 3.27 µM (inactive) | 1.86 µM (inactive) | 2.66 µM (inactive) | 1.76 µM (inactive) | 2.8 µM (inactive) | 1.61 µM (inactive) | 1.63 µM (inactive)
5 | CN(C)/C=C/c1c2c(nc3ccccc13)C(=O)c1cccnc1C2=O | 0.912 µM (active) | 0.217 µM (active) | 1.84 µM (inactive) | 1.28 µM (inactive) | 0.197 µM (active) | 0.0908 | 0.299 µM (active) | 0.446 µM (active) | 0.292 µM (active) | 0.321 µM (active) | 0.0568 µM (active) | 0.705 µM (active) | 0.57 µM (active) | 0.151 µM (active) | 0.532 µM (active) | 0.432 µM (active) | 0.244 µM (active) | 3.97 µM (inactive) | 0.668 µM (active) | 0.541 µM (active)
6 | C=CCNC(=S)N/N=C1\C(=O)N(CN2CCOCC2)c2ccc([N+](=O)[O-])cc21 | 10.4 µM (inactive) | 5.3 µM (inactive) | 2.7 µM (inactive) | 12.9 µM (inactive) | 6.46 µM (inactive) | 5.04 | 24.6 µM (inactive) | 18.9 µM (inactive) | > 100 µM (inactive) | 3.74 µM (inactive) | 24.3 µM (inactive) | > 100 µM (inactive) | 7.98 µM (inactive) | 9.73 µM (inactive) | 16.4 µM (inactive) | 24.3 µM (inactive) | 61.5 µM (inactive) | 17 µM (inactive) | 16.6 µM (inactive) | > 100 µM (inactive)
7 | NN | 145 µM (inactive) | 593 µM (inactive) | 72.3 µM (inactive) | 1040 µM (inactive) | 192 µM (inactive) | 296 | 205 µM (inactive) | 88.7 µM (inactive) | 481 µM (inactive) | 740 µM (inactive) | 431 µM (inactive) | 453 µM (inactive) | 574 µM (inactive) | 594 µM (inactive) | 403 µM (inactive) | 851 µM (inactive) | 235 µM (inactive) | 618 µM (inactive) | 851 µM (inactive) | 358 µM (inactive)
8 | CCC1NC(=O)C(NC(=O)c2ncccc2O)C(C)OC(=O)C(c2ccccc2)NC(=O)C2CC(=O)CCN2C(=O)C(Cc2ccccc2)N(C)C(=O)C2CCCN2C1=O (stereo not given) | > 100 µM (inactive) | > 100 µM (inactive) | 41.5 µM (inactive) | > 100 µM (inactive) | > 100 µM (inactive) | > 100 | 52.6 µM (inactive) | > 100 µM (inactive) | > 100 µM (inactive) | > 100 µM (inactive) | > 100 µM (inactive) | > 100 µM (inactive) | > 100 µM (inactive) | > 100 µM (inactive) | > 100 µM (inactive) | > 100 µM (inactive) | > 100 µM (inactive) | > 100 µM (inactive) | > 100 µM (inactive) | > 100 µM (inactive)
9 | Cc1ccc2c(c1)nc1n2C(N)=Nc2ccccc2S1 | 25.4 µM (inactive) | 59.7 µM (inactive) | 2.65 µM (inactive) | 51.3 µM (inactive) | 4.4 µM (inactive) | 24.2 | 2.67 µM (inactive) | 5.79 µM (inactive) | 30.3 µM (inactive) | 43.4 µM (inactive) | 43.3 µM (inactive) | > 100 µM (inactive) | 47.6 µM (inactive) | 28.2 µM (inactive) | > 92.7 µM (inactive) | > 54.6 µM (inactive) | 40 µM (inactive) | 46.6 µM (inactive) | > 67.5 µM (inactive) | > 60.8 µM (inactive)
10 | CCC1=NC(N/N=C/c2ccccc2O)=N/C1=C\c1ccccc1O | 12.9 µM (inactive) | 4.11 µM (inactive) | 3.94 µM (inactive) | 10.2 µM (inactive) | 7.59 µM (inactive) | 2.07 | 4.53 µM (inactive) | 12.2 µM (inactive) | 22.1 µM (inactive) | 2.68 µM (inactive) | 2.89 µM (inactive) | 18.3 µM (inactive) | 7.69 µM (inactive) | 19.5 µM (inactive) | 21.3 µM (inactive) | 17.5 µM (inactive) | 7.5 µM (inactive) | 12.1 µM (inactive) | 14.8 µM (inactive) | 9.79 µM (inactive)
11 | COc1cc(C(=O)Nc2c3ccccc3nc3ccccc23)cc(OC)c1OC | > 100 µM (inactive) | > 50.1 µM (inactive) | 20.5 µM (inactive) | > 100 µM (inactive) | > 67.1 µM (inactive) | > 100 | 3.64 µM (inactive) | > 54.3 µM (inactive) | > 100 µM (inactive) | > 93.5 µM (inactive) | 98.6 µM (inactive) | 14.2 µM (inactive) | 35.6 µM (inactive) | > 100 µM (inactive) | > 100 µM (inactive) | 0.885 µM (active) | > 100 µM (inactive) | > 100 µM (inactive) | > 100 µM (inactive) | > 34.7 µM (inactive)
12 | O=C(O)c1cc2c(cc1CC(Cc1ccc3c(c1)CCCC3)C(=O)O)CCCC2 (stereo not given) | > 100 µM (inactive) | 56.5 µM (inactive) | 67.5 µM (inactive) | 32.9 µM (inactive) | > 100 µM (inactive) | 64.4 | 99.8 µM (inactive) | > 100 µM (inactive) | 54.3 µM (inactive) | 32.8 µM (inactive) | > 100 µM (inactive) | 41.5 µM (inactive) | > 100 µM (inactive) | > 100 µM (inactive) | > 100 µM (inactive) | > 100 µM (inactive) | > 100 µM (inactive) | 88.1 µM (inactive) | 44.6 µM (inactive) | > 100 µM (inactive)
13 | CC(=O)OCC1OC(N2C(C)=C(C(C)=O)C(c3ccco3)C(C#N)=C2S)C(OC(C)=O)C(OC(C)=O)C1OC(C)=O (stereo not given) | > 100 µM (inactive) | > 100 µM (inactive) | > 100 µM (inactive) | > 100 µM (inactive) | > 100 µM (inactive) | > 100 | > 100 µM (inactive) | > 100 µM (inactive) | > 100 µM (inactive) | > 100 µM (inactive) | > 100 µM (inactive) | > 100 µM (inactive) | > 100 µM (inactive) | > 100 µM (inactive) | > 100 µM (inactive) | > 100 µM (inactive) | > 100 µM (inactive) | 78.7 µM (inactive) | > 100 µM (inactive) | > 100 µM (inactive)
14 | O=C1CCC(CCc2nc3ccccc3[nH]2)(c2ccccc2)C(=O)N1 (stereo not given) | > 100 µM (inactive) | > 100 µM (inactive) | > 100 µM (inactive) | > 100 µM (inactive) | > 100 µM (inactive) | > 100 | > 100 µM (inactive) | 64 µM (inactive) | > 100 µM (inactive) | > 100 µM (inactive) | > 100 µM (inactive) | > 100 µM (inactive) | > 100 µM (inactive) | > 100 µM (inactive) | > 100 µM (inactive) | 86.1 µM (inactive) | > 100 µM (inactive) | > 100 µM (inactive) | > 100 µM (inactive) | > 100 µM (inactive)
